Consider 17 compounds from PMC9861390, “Synthesis and Molecular Docking of Some Novel 3-Thiazolyl-Coumarins as Inhibitors of VEGFR-2 Kinase” (Molecules, 2023).

The structures appear in SMILES notation.

For data set [1], the system named is human breast cancer (MCF-7) cell line. Put plainly: MTT cytotoxicity assay on MCF-7. In kind it is cell-based. The note with it: MCF7, 24 h incubation, mean and standard error of three tests. The method, then: (§1) Afterward, the determination of the tested sample concentrations that were sufficient to kill 50 percent of the cell population (IC50) was done by using the cytotoxicity results in plotting a dose-response curve.
(§2) In addition, cytotoxic activities were reported as the average IC50 from three separate tests.
The cytotoxicity of the investigated substances was assessed and determined by MTT assay, and the detailed cytotoxicity assay is included in the Supplementary File S1 [57, 58].
1H-NMR spectra of compound 12c-1
(§3) The tested human breast cancer (MCF -7) cell lines and normal cell line LLC - Mk2 were obtained from the American Type Culture Collection (ATCC, Rockville, MD). The cells were grown on RPMI -1640 medium supplemented with 10% inactivated fetal calf serum and 50µg/mL gentamycin (Lonza, Belgium). The cells were maintained at 37 °C in a humidified atmosphere with 5% CO 2 and were subcultured two to three times a week during the period of experiment .
(§4) For antitumor assays, the tumor cell lines were suspended in medium at cell density of 5x10^4 cells/well in Corning® 96-well tissue culture plates and then incubated for 24 hours. The tested compounds were then added into 96-well plates (six replicates) to achieve eight concentrations for each compound. Six vehicle controls with media or 0.5 % DMSO were run for each 96 well plate as a control. After incubating for 24 h, the numbers of viable cells were determined by the MTT assay. Briefly, the media was removed from the 96-well plate and replaced with 100 µl of fresh culture RPMI 1640 medium without phenol red then 10
(§5) (1 picture or pasted object on this page, not shown here) […]
(§6) µL of the 12 mM MTT stock solution {5 mg of 3-(4,5-dimethylthiazol-2-yl)-2,5-diphenyltetrazolium bromide purchased from Sigma-Aldrich (St. Louis, MO) in 1 mL of Phosphate buffered saline} to each well including the untreated controls. The 96 well plates were then incubated at 37°C and 5% CO 2 for 4 hours.
(§7) An 85 µl aliquot of the media was removed from the wells, and 50 µL of DMSO was added to each well and mixed thoroughly with the pipette and incubated at 37 °C for 10 min. Then, the optical density was measured at 590 nm with the microplate reader (SunRise, TECAN, Inc, USA) to dete rmine the number of viable cells and the percentage of viability was calculated as [(ODt/ODc)]x100% where ODt is the mean optical density of wells treated with the tested sample and ODc is the mean optical density of untreated cells. The relation between surviving cells and drug concentration is plotted to get the survival curve of each tumor cell line after treatment with the specified compound. The 50% inhibitory concentration (IC 50), the concentration required to cause toxic effects in 50% of intact cells, was estimated from graphic plots of the dose response curve for each conc. using GraphPad Prism software (San Diego, CA. USA)[ 2].
1. Mosmann, T. Rapid colorimetric assay for cellular growth and survival: application to proliferation and cytotoxicity assays. J. Immunol. Methods 1983, 65, 55-63.
For orientation: Tetrazolium dyes change colour on reduction, which living cells bring about.

The nature of data set [2]: MTT cytotoxicity assay on normal cell line LLC-Mk2. Format: cell-based. The note with it: rhesus monkey, LLC-Mk2 kidney epithelial normal cells, mean and standard error. The method, then: as §1, §2
The cytotoxicity of the investigated substances was assessed and determined by MTT assay, and the detailed cytotoxicity assay is included in the Supplementary File S1 [57, 58]. […]
as §3, §4, §5, §6
as §7, with “2]. […]” for “2].”

The subject of a further data set is VEGFR-2. Further details: method as in PMID 28942113, PMID 21078410, PMID 26916914, PMID 27367493, PMID 35807236. The settings on record: in Figure 2; cited from earlier work.

What is called melting point is the temperature, or range, at which the solid turns liquid. Compound `CC(=NNC(N)=S)c1cc2cc(N=Nc3ccccc3)ccc2oc1=O` [Compound 3, 2-(1-(2-oxo-6-(phenyldiazenyl)-2H-chromen-3-yl)ethylidene)hydrazine-1-carbothioamide] returned a melting point of 177 to 179 °C.
Same read-out and setting: the value for `C/C(=N\Nc1nc(C)c(/N=N/c2ccccc2)s1)c1cc2cc(/N=N/c3ccccc3)ccc2oc1=O` [Compound 6a] was 201 to 203 °C.
Usually IC50 stands for the midpoint of a concentration-inhibition curve. Low values mean inhibition by little substance, high ones a need for much substance. In general, CC50 refers to the concentration that lowers cell viability or growth by half. In turn, `CC(=NNc1nc(C)c(N=Nc2ccc(C)cc2)s1)c1cc2cc(N=Nc3ccccc3)ccc2oc1=O` [Compound 6b] showed an IC50 in data set [1] of 11.2 ± 0.8 µM. This compound also returned a CC50 at 24 h in data set [2] of 152 ± 9.3 µM.
In the case of `COc1ccc(/N=N/c2sc(N/N=C(\C)c3cc4cc(/N=N/c5ccccc5)ccc4oc3=O)nc2C)cc1` [Compound 6c], the melting point lay within 179 to 181 °C. The compound also had an IC50 in data set [1] of 14.1 ± 0.63 µM. In data set [2], this compound had a CC50 at 24 h of 141 ± 5.15 µM.
Consider `CC(=NNc1nc(C)c(N=Nc2ccc(Cl)cc2)s1)c1cc2cc(N=Nc3ccccc3)ccc2oc1=O` [Compound 6d], for which, in data set [1], the IC50 turned out to be 10.5 ± 0.71 µM. Besides, the CC50 at 24 h in data set [2] came to 132 ± 8.26 µM.
Take `CC(=NNc1nc(C)c(N=Nc2ccc(Cl)cc2Cl)s1)c1cc2cc(N=Nc3ccccc3)ccc2oc1=O` [Compound 6e]: the melting point fell in the range of 216 to 218 °C.
`CC(=NNC1=NC(=O)C(=NNc2ccc(C)cc2)S1)c1cc2cc(N=Nc3ccccc3)ccc2oc1=O` [Compound 10a] returned an IC50 in data set [1] of 28.6 ± 0.64 µM. Also, the CC50 at 24 h in data set [2] is 140 ± 10.3 µM.
`CC(=NNC1=NC(=O)C(=NNc2ccc(Cl)cc2)S1)c1cc2cc(N=Nc3ccccc3)ccc2oc1=O` [Compound 10b] returned a melting point of 190 to 192 °C.
In data set [1], `CC(=NNC1=NC(=O)C(=NNc2ccc([N+](=O)[O-])cc2)S1)c1cc2cc(N=Nc3ccccc3)ccc2oc1=O` [Compound 10c] registered an IC50 of 15.7 ± 0.67 µM. In addition, the CC50 at 24 h in data set [2] worked out at 163 ± 9.12 µM.
With `CC(=NNc1nc(-c2ccccc2)cs1)c1cc2cc(N=Nc3ccccc3)ccc2oc1=O` [Compound 12a], the melting point is 217 to 219 °C.
The same measure, in the same setting: the value for `COc1ccc(-c2csc(NN=C(C)c3cc4cc(N=Nc5ccccc5)ccc4oc3=O)n2)cc1` [Compound 12b] was 205 to 207 °C.
On the same count and under the same terms, the value for `C/C(=N\Nc1nc(-c2ccc([N+](=O)[O-])cc2)cs1)c1cc2cc(/N=N/c3ccccc3)ccc2oc1=O` [Compound 12c] was 231 to 233 °C.
For the compound `C/C(=N\c1ccc(F)cc1)c1c(O)c2ccccc2oc1=O` [III], the VEGFR-2 inhibition in the data set on VEGFR-2 is reported as 94%.
With `CO/C=N\C1=C(C#N)C(c2ccc(F)cc2)c2c(c3ccccc3oc2=O)C1` (stereo not drawn) [IV], the VEGFR-2 inhibition in the data set with VEGFR-2 was 94%.
On to `CNC(=O)c1cc(Oc2ccc(NC(=O)Nc3ccc(Cl)c(C(F)(F)F)c3)cc2)ccn1` [Sorafenib, reference compound], for which the IC50 in data set [1] came to 5.1 ± 0.49 µM. In addition, it took 135 ± 4.08 µM to reach half-maximal cytotoxicity in data set [2] (CC50 at 24 h).
`O=c1oc2cc(O)ccc2c(Nc2ccc(OCCN3CCCCC3)cc2)c1-c1ccc(F)cc1` [X = NH]: the VEGFR-2 inhibition with VEGFR-2 is reported as 88.42%.
`O=c1oc2cc(O)ccc2c(Oc2ccc(OCCN3CCCCC3)cc2)c1-c1ccc(F)cc1` [X = O]: the VEGFR-2 inhibition with VEGFR-2 is 82.92%.
